Legend:
Assay type in all cases: in vivo
[1] = tested on: soybean cv. S-40-R9 (RR-soybean); assay: Crop tolerance test (germination after seed treatment), cv. S-40-R9
Protocol: (§1) Fifty soybean seeds of cv. S-40-R9 (RR-soybean) or cv. Williams (not GM) are sown 2 cm deep into trays filled with quarz sand. Seeds are treated prior to sowing with the formulated ais. The plants are grown at 20-23° C. in a greenhouse. If necessary, artificial lighting is supplied to give a 14 hr day.
(§2) Plant emergence 6 DAS and final stand 11 DAS is counted.

[2] = tested on: soybean cv. Williams (not GM); assay: Crop tolerance test (germination after seed treatment), cv. Williams
Protocol: as §1, §2

[3] = tested on: Phakopsora pachyrhizi; assay: Test for rust activity, leaf discs from seed-treated plants, cv. S-40-R9; conditions: 11 DAI
Protocol: as §1
(§3) For the soybean rust assay, plants are transplanted 13 DAS into 8 cm pots filled with soil. 13 days after transplanting leaf discs are cut from the first and second true leaves and transferred to multiwell plates filled with water agar. 1 day later the leaf discs are inoculated with Phakopsora pachyrhizi. Assessment of the disease incidence is done 11 DAI (days after inoculation).

[4] = tested on: Phakopsora pachyrhizi; assay: Test for rust activity, leaf discs from seed-treated plants, cv. Williams; conditions: 11 DAI
Protocol: as §1, §3

[5] = GA seed treatment 1 g ai/100 kg, cv. S-40-R9, fifty seeds sown
[6] = GA seed treatment 2 g ai/100 kg, cv. S-40-R9, fifty seeds sown
[7] = GA seed treatment 1 g ai/100 kg
[8] = GA seed treatment 2 g ai/100 kg
[9] = GA seed treatment 1 g ai/100 kg, cv. Williams, fifty seeds sown
[10] = GA seed treatment 2 g ai/100 kg, cv. Williams, fifty seeds sown

For `CC(C1CC1)C(O)(Cn1cncn1)c1ccc(Cl)cc1` (stereo not shown) [Cyproconazole (CCZ), cyproconazole], the “Effect on plant numbers and size (phytotoxicity)” value ([1]; in vivo) was “severe reductions in plant numbers and size”, the “Germination % Emergence 6 DAS” value ([1]; in vivo) was 0% and the “Germination Count 6 DAS” value ([1]; in vivo) was 0. For the same compound, the “Germination % Emergence 6 DAS” value ([2]; in vivo) was 0% and the “Germination Count 6 DAS” value ([2]; in vivo) was 0.

For `C=C1C[C@]23C[C@@]1(O)CC[C@H]2[C@@]12C=C[C@H](O)[C@@](C)(C(=O)O1)[C@H]2[C@@H]3C(=O)O` [Gibberelic acid (GA), gibberellic acid (gibberellin A3)], the “Germination % Emergence 6 DAS” value [1, 5] was 100%, the “Germination % Final Stand 11 DAS” value [1, 5] was 100% and the “Germination Count 6 DAS” value [1, 5] was 50. For the same compound, the “Germination Count 11 DAS” value [1, 5] was 50, the “Germination % Emergence 6 DAS” value [1, 6] was 96% and the “Germination % Final Stand 11 DAS” value [1, 6] was 96%. The “Germination Count 6 DAS” value [1, 6] was 48, the “Germination Count 11 DAS” value [1, 6] was 48 and the “1st Leaf % Activity” value [3, 7] was 0.0%. For the same compound, the “1st Leaf % Disease” value [3, 7] was 87.8%, the “2nd Leaf % Activity” value [3, 7] was 0.0% and the “2nd Leaf % Disease” value [3, 7] was 71.1%. The “1st Leaf % Activity” value [3, 8] was 0.0%, the “1st Leaf % Disease” value [3, 8] was 82.8% and the “2nd Leaf % Activity” value [3, 8] was 0.0%. For the same compound, the “2nd Leaf % Disease” value [3, 8] was 68.9%, the “Germination % Emergence 6 DAS” value [2, 9] was 100% and the “Germination % Final Stand 11 DAS” value [2, 9] was 100%. The “Germination Count 6 DAS” value [2, 9] was 50, the “Germination Count 11 DAS” value [2, 9] was 50 and the “Germination % Emergence 6 DAS” value [2, 10] was 98%. For the same compound, the “Germination % Final Stand 11 DAS” value [2, 10] was 98%, the “Germination Count 6 DAS” value [2, 10] was 49 and the “Germination Count 11 DAS” value [2, 10] was 49. For the same compound, the “1st Leaf % Activity” value [4, 7] was 0.0%, the “1st Leaf % Disease” value [4, 7] was 88.9% and the “2nd Leaf % Activity” value [4, 7] was 32.4%. The “2nd Leaf % Disease” value [4, 7] was 48.3%, the “1st Leaf % Activity” value [4, 8] was 0.0% and the “1st Leaf % Disease” value [4, 8] was 87.2%. For the same compound, the “2nd Leaf % Activity” value [4, 8] was 28.4% and the “2nd Leaf % Disease” value [4, 8] was 51.1%.

Reference: patent US8440590B2, “Method for controlling soybean rust” (priority 2006, dated 2013)
